In brackets after ≈: the same amount, converted by molar mass.

The record followed here is ChEMBL document CHEMBL4020795, “One-pot microwave assisted stereoselective synthesis of novel dihydro-2'H-spiro[indene-2,1'-pyrrolo-[3,4-c]pyrrole]-tetraones and evaluation of their antimycobacterial activity and inhibition of AChE” (Bioorg Med Chem Lett, 2017).

Assay [1] has as its target Acetylcholinesterase (Homo sapiens, UniProt P22303). The experiment in a line: Inhibition of AChE (unknown origin) using […] as substrate preincubated for 15 mins followed by substrate addition measured every minute by spectrophotometric analysis.
Assay [2] deals with Mycobacterium tuberculosis. Description: Antimicrobial activity against Mycobacterium tuberculosis H37Rv by Alamar blue assay. The assay is classed as functional. (Resazurin is reduced to fluorescent resorufin, in cell work by metabolically active cells.)
In assay [3] the test system is Mycobacterium tuberculosis. The experiment in a line: Potency index, ratio of cycloserine IC50 to test compound IC50 for Mycobacterium tuberculosis H37Rv. The assay is classed as functional.
Assay [4] relates to Mycobacterium tuberculosis. Description: Potency index, ratio of pyrimethamine IC50 to test compound IC50 for Mycobacterium tuberculosis H37Rv. The assay is classed as functional.
Assay [5] deals with Vero. The experiment in a line: Cytotoxicity against monkey Vero cells assessed as decrease in cell viability after 72 hrs by MTT assay. The assay is classed as cell-based. To be noted: Chlorocebus sabaeus. On the technique in general: Tetrazolium assays rely on reduction of a dye to a coloured formazan, in cell work by metabolically active cells.

Chain of Acetylcholinesterase (P22303 whole entry): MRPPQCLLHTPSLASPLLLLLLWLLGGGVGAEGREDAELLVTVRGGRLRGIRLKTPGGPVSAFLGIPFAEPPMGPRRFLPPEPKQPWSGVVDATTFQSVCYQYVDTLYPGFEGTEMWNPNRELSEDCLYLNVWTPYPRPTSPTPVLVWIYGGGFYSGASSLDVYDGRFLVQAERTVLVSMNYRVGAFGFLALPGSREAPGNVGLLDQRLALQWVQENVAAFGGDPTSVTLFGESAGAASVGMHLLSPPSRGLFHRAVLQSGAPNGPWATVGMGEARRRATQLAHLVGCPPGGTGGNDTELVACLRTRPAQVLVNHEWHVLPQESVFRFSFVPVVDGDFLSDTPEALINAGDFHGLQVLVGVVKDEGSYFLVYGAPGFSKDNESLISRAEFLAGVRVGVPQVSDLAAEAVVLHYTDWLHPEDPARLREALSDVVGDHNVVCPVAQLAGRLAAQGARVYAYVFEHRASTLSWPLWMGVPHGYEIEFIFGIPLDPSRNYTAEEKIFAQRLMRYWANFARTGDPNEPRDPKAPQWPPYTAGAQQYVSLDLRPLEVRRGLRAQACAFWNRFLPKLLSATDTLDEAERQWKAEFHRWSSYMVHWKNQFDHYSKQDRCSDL

As to `CN1CC2C(=O)N(c3ccc(Cl)cc3)C(=O)C2C12C(=O)c1ccccc1C2=O` (stereo not given), the IC50 – broadly, the concentration that gives 50% inhibition – in assay [1] was 27.9 µM; in assay [2], 1.3 µM; in assay [5], above 6.25 µg/mL. For the same compound, it took 5.3 µM to reach the 90% level in assay [2] (IC90). Also, the minimum inhibitory concentration (MIC) (usually the smallest concentration in the dilution series that meets the test's criterion for growth inhibition) in assay [2] turned out to be 25 µM (≈ 9.87 µg/mL). Also, the “Ratio IC50” value worked out at 12 in assay [3] and 37 in assay [4].

Regarding `CN1CC2C(=O)N(c3ccc(F)cc3)C(=O)C2C12C(=O)c1ccccc1C2=O` (stereo not given), in assay [1], the IC50 was 50.1 µM. Besides, in assay [2], the 50% inhibitory concentration (IC50) is 2.17 µM, the 90% effect level (IC90) was put at 7.86 µM and inhibition of growth (MIC) required 50 µM (≈ 18.9 µg/mL). The concentration for half-maximal inhibition (IC50) in assay [5] was above 6.25 µg/mL.

`CN1CC2C(=O)N(c3ccccc3)C(=O)C2C12C(=O)c1ccccc1C2=O` (stereo not given) came in with an IC50 in assay [1] of 69.8 µM. For the same compound, in assay [2], the midpoint of inhibition, the IC50, lay at 13.2 µM; the 90% effect concentration (IC90) (commonly the point of the concentration-response curve where the effect stands at 90%) came out at 25.9 µM; the minimal inhibitory concentration (MIC) turned out to be 50 µM (≈ 18 µg/mL). In addition, in assay [5], the IC50 was above 6.25 µg/mL.

`COc1ccccc1N1C(=O)C2CN(C)C3(C(=O)c4ccccc4C3=O)C2C1=O` (stereo not given): 11.1 µM corresponded to half-maximal inhibition in assay [1] (IC50). In assay [2], the IC50 is 28.3 µM, the 90% effect level (IC90) was put at 46.5 µM and the minimal inhibitory concentration (MIC) was 50 µM (≈ 19.5 µg/mL). The concentration for half-maximal inhibition (IC50) in assay [5] was above 6.25 µg/mL.

The compound `CN1CC2C(=O)N(c3ccc([N+](=O)[O-])cc3)C(=O)C2C12C(=O)c1ccccc1C2=O` (stereo not given) showed a concentration for half-maximal inhibition (IC50) in assay [1] of 6.6 µM. In assay [2], this compound gave an IC50 of 47.2 µM, an IC90 of 66.5 µM and an MIC of 100 µM (≈ 40.5 µg/mL). Further, the 50% inhibitory concentration (IC50) in assay [5] was above 6.25 µg/mL.

For `CC(C)c1ccc(N2C(=O)C3CN(C)C4(C(=O)c5ccccc5C4=O)C3C2=O)cc1` (stereo not given), in assay [1], 12.2 µM corresponded to half-maximal inhibition (IC50). Besides, in assay [2], the IC50 worked out at 28.5 µM, the 90% effect level (IC90) was put at 52.4 µM and the minimal inhibitory concentration (MIC) came to 100 µM (≈ 40.2 µg/mL). In assay [5], the IC50 is above 6.25 µg/mL.

`CN1CC2C(=O)N(c3cccc(F)c3)C(=O)C2C12C(=O)c1ccccc1C2=O` (stereo not given): inhibition in assay [1] was half-maximal at 80.1 µM (IC50). In assay [2], this compound returned an IC50 of 28.6 µM, a 90% effect concentration (IC90) of 47.7 µM and a minimum inhibitory concentration (MIC) of 50 µM (≈ 18.9 µg/mL). Also, the IC50 in assay [5] is above 6.25 µg/mL.

For `Cc1ccc(N2C(=O)C3CN(C)C4(C(=O)c5ccccc5C4=O)C3C2=O)cc1` (stereo not given), half-maximal inhibition in assay [1] (IC50) required 7.34 µM. Besides, in assay [2], the IC50 worked out at 40 µM, it took 71.9 µM to reach the 90% level (IC90) and the MIC came out at 100 µM (≈ 37.4 µg/mL). Moreover, the half-inhibitory concentration (IC50) in assay [5] was above 6.25 µg/mL.

In assay [2], `N[C@@H]1CONC1=O` [CYCLOSERINE] returned a minimal inhibitory concentration (MIC) of 25 µM (≈ 2.55 µg/mL). Further, in assay [5], the IC50 was above 6.25 µg/mL.

In assay [2], `NNC(=O)c1ccncc1` [ISONIAZID] returned an IC90 of 0.29 µM and a minimum inhibitory concentration (MIC) of 0.31 µM (≈ 0.0425 µg/mL). Further, the IC50 in assay [5] was above 6.25 µg/mL.

`CN1CC2C(=O)N(c3ccc(Br)cc3)C(=O)C2C12C(=O)c1ccccc1C2=O` (stereo not given) returned a half-maximal inhibitory concentration (IC50) in assay [1] of 73.3 µM. In assay [2], the IC50 was 11.1 µM, the 90% effect concentration (IC90) worked out at 22 µM and the lowest concentration to inhibit growth (MIC) was 50 µM (≈ 22 µg/mL). The 50% inhibitory concentration (IC50) in assay [5] was above 6.25 µg/mL.

Compound `CCc1ccc(N2C(=O)C3CN(C)C4(C(=O)c5ccccc5C4=O)C3C2=O)cc1` (stereo not given) yielded an IC50 in assay [1] of 44.6 µM. Further, in assay [2], half-maximal inhibition (IC50) was put at 21.9 µM, the IC90 is 47.9 µM and the MIC amounted to 50 µM (≈ 19.4 µg/mL). For the same compound, the concentration for half-maximal inhibition (IC50) in assay [5] is above 6.25 µg/mL.

In assay [2], `NCC[C@H](O)C(=O)N[C@@H]1C[C@H](N)[C@@H](O[C@H]2O[C@H](CN)[C@@H](O)[C@H](O)[C@H]2O)[C@H](O)[C@H]1O[C@H]1O[C@H](CO)[C@@H](O)[C@H](N)[C@H]1O` [AMIKACIN] returned an IC90 of 0.08 µM and an MIC of 0.16 µM (≈ 0.0937 µg/mL). For the same compound, the IC50 in assay [5] was above 6.25 µg/mL.

Turning to `CN1CC2C(=O)N(Cc3ccccc3)C(=O)C2C12C(=O)c1ccccc1C2=O` (stereo not given), the results for the IC50 in assay [1], in assay [2] and in assay [5] were 41.2 µM, 55 µM and above 6.25 µg/mL, respectively. This compound displayed a concentration for an effect of 90% (IC90) in assay [2] of 96.4 µM. The minimum inhibitory concentration (MIC) in assay [2] came out at 100 µM (≈ 37.4 µg/mL).

In assay [1], `CN1C(=O)C2CN(C)C3(C(=O)c4ccccc4C3=O)C2C1=O` (stereo not given) gave an IC50 of 2.1 µM. In assay [2], this compound yielded an IC50 of 22.9 µM, a 90% effect concentration (IC90) of 34.6 µM and a minimal inhibitory concentration (MIC) of 50 µM (≈ 14.9 µg/mL). The IC50 in assay [5] is above 6.25 µg/mL.

As to `CC[C@@H](CO)NCCN[C@@H](CC)CO` [ETHAMBUTOL], in assay [2], the half-inhibitory concentration (IC50) is below 1.56 µM and the minimum inhibitory concentration (MIC) was 12.5 µM (≈ 2.55 µg/mL). Further, the half-inhibitory concentration (IC50) in assay [5] was above 6.25 µg/mL.

In turn, `CN1CC2C(=O)N(C3CCCCC3)C(=O)C2C12C(=O)c1ccccc1C2=O` (stereo not given) came in with an IC50 in assay [1] of 4.12 µM. In assay [2], this compound had an IC50 of 15.9 µM, a 90% effect concentration (IC90) of 34.6 µM and an MIC of 100 µM (≈ 36.6 µg/mL). Further, the IC50 in assay [5] is above 6.25 µg/mL.

As to `CCc1nc(N)nc(N)c1-c1ccc(Cl)cc1` [PYRIMETHAMINE], the minimum inhibitory concentration (MIC) in assay [2] was 100 µM (≈ 24.9 µg/mL). For the same compound, in assay [5], the half-inhibitory concentration (IC50) is above 6.25 µg/mL.

Consider `COc1ccc(N2C(=O)C3CN(C)C4(C(=O)c5ccccc5C4=O)C3C2=O)cc1` (stereo not given), for which the IC50 was 0.78 µM in assay [1], 17.2 µM in assay [2] and above 6.25 µg/mL in assay [5]. Besides, it took 35.5 µM to reach the 90% level in assay [2] (IC90). Further, the MIC in assay [2] amounted to 50 µM (≈ 19.5 µg/mL).
